Holding throughout (test): GTPase-Glo luminescence, Lineweaver-Burk
The test system of experiment [1] is T1, Gαsβγ (A2AR-Gαsβγ complex).
T1 construct: gene GNAS; cited protocols may use bovine/rat subunits), with purified A2AR_316 V229C in LMNG/CHS; Adenosine receptor A2a
The class given is biochemical, Homo sapiens. The conditions noted are these: R291A receptor (S4), with cognate GAP, pH […], room temperature. The source says: GTPase-Glo luminescence, Lineweaver-Burk on WT*-mediated Gαsβγ (A2AR-Gαsβγ complex) | we measured the initial rates and Michaelis constants of GTP hydrolysis

In another experiment the test system is T2, Gαsβγ alone.
T2 construct: gene GNAS; full-length Gαsβγ heterotrimer without receptor
The class given is biochemical. The conditions noted are these: […] Gαsβγ without receptor, with cognate GAP, pH […], room temperature. The source says: GTPase-Glo luminescence, Lineweaver-Burk on Gαsβγ alone | Km values for S4 mediated Gαsβγ, in reference to Gαsβγ alone (negative control)

Experiment [2] deals with T3, WT*-mediated Gαsβγ (A2AR-Gαsβγ complex).
T3 construct: gene GNAS; cited protocols may use bovine/rat subunits), with purified A2AR_316 V229C in LMNG/CHS; Adenosine receptor A2a
It counts as biochemical, Homo sapiens. The conditions noted are these: agonist-activated WT* receptor (S5), with cognate GAP, pH […], room temperature. The text has this:
GTPase-Glo luminescence, Lineweaver-Burk on WT*-mediated Gαsβγ (A2AR-Gαsβγ complex) | and the S5 mediated Gαsβγ (positive control)

As for `Nc1nc2c(ncn2[C@@H]2O[C@H](COP(=O)(O)OP(=O)(O)OP(=O)(O)O)[C@@H](O)[C@H]2O)c(=O)[nH]1` [GTP], the Km (commonly the concentration of substrate that gives half-maximal velocity) in experiment [1] is 18 ± 1.87 µM; with Gαsβγ alone, 8.3 ± 0.61 µM; in experiment [2], 32.1 ± 1 µM.

The values are drawn from paper PMC11775185, “Structure and function of a near fully-activated intermediate GPCR-Gαβγ complex” (Nature Communications, 2025).
